Paper PMC8746705, “Comparison of Experimental Strategies to Study L-Type Amino Acid Transporter 1 (LAT1) Utilization by Ligands” (Molecules, 2021)
Read-outs that look alike come from different tables or passages of the source.

Experiments:
LAT1 [1] = target: T1, LAT1 (Mus musculus, UniProt Q9Z127); test: Concentration-dependent cellular uptake into BV2 cells, Eadie–Hofstee analysis, Transport Type 1 (LAT1); format: cell-based; settings: 1–200 µM, 30 min, BV2; Eadie–Hofstee; mean ± SD, n = 3
Experimental: (§1) For the concentration-dependent cellular uptake experiments, the BV2 cells on 24-well plates were incubated with studied compounds (1–200 μM) in pre-warmed HBSS buffer (250 μL) at 37 °C for 30 min. The experiment was then carried out as described for the time-dependent uptake above and the concentration of studied compounds in the cell lysate was analyzed by the LC-MS/MS methods described above and the results were normalized to the total protein concentration. The distinct transport mechanisms were separated from the Michaelis-Menten kinetics by using Eadie–Hofstee plot.
(§2) The studied compounds (1–15) were analyzed by using Agilent 1200 Series Rapid Resolution LC System together with an Agilent 6410 Triple Quadrupole Mass Spectrometer equipped with an electrospray ionization source (Agilent Technologies, Santa Clara, CA, USA). The chromatographic separations of analytes were achieved by using a reversed-phase Zobrax SB-C18 column (50 mm × 2.1 mm, 1.8 μm; Agilent Technologies, Santa Clara, CA, USA) by eluting the samples with 0.1% formic acid in water (A) and 0.1% formic in ACN (B). Labetalol and diclofenac were used as internal standards (ISTD) for the prodrugs and parent drugs, respectively. The transitions used for the quantification at the positive ion mode and chromatographic conditions of each compound and their parent drugs are listed in Table S1. The methods of compounds 1–11 have been reported earlier, while the methods of compounds 12–15 are reported herein for the first time.

Transport Type 2 = test: Concentration-dependent cellular uptake into BV2 cells, Eadie–Hofstee analysis, Transport Type 2; format: cell-based, mouse; settings: 1–200 µM, 30 min, mean ± SD, n = 3
Experimental: as §1, §2

LAT1 [2] = target: T1, LAT1; test: Cis-inhibition of radiolabelled LAT1-probe substrate uptake into BV2 cells; format: cell-based; settings: for IC50: 5 min, mean ± SD
Experimental: (§3) After removal of the culture medium, the BV2 cells were carefully washed with pre-warmed HBSS (Hank’s balanced salt solution) containing 125.0 mM choline chloride, 4.8 mM KCl, 1.2 mM MgSO4, 1.2 mM KH2PO4, 1.3 mM CaCl2, 5.6 mM glucose, and 25.0 mM HEPES (pH 7.4 adjusted with 1 M NaOH). Pre-incubation was done with 500 μL of pre-warmed HBSS at 37 °C for 10 min before adding substrates (250 μL in HBSS) for the uptake experiments.
The ability of compounds 1–15 to inhibit the uptake of a known LAT1 substrate [^14C]-L-leucine was then evaluated by incubating the cells at 37 °C for 5 min in uptake buffer pH 7.4 (250 μL) containing 0.2 µCi/mL of [^14C]-L-leucine, or 2 µCi/mL of [^3H]-L-methionine, [^3H]-L-tryptophan or [^3H]-L-kynurenine (PerkinElmer, Waltham, MA, USA) and 0.1–1000 μM of the studied compound (or HBSS as blank). After incubation, the uptake was stopped by adding 250 µL of ice-cold HBSS, and the cells were washed two times with ice-cold HBSS. The cells were then lysed with 500 μL of NaOH (0.1 M) for 60 min and the lysate was mixed with 3.5 mL of Emulsifier safe cocktail (Ultima Gold, PerkinElmer, Waltham, MA, USA). The radioactivity in the cells was measured by liquid scintillation counting (MicroBeta^2 counter, PerkinElmer Waltham, MA, USA). Half of the maximum inhibitory concentration (IC50) values were calculated by nonlinear regression analysis (fitting the curve to log (concentration) vs. remaining normalized […]).

LAT1 [3] = target: T1, LAT1; test: Cellular uptake of compounds in the presence of LAT1-inhibitor (KMH-233); format: cell-based; settings: 100 µM compound, 100 µM KMH-233, 30 min, BV2
Experimental: The competitive uptake in the presence of LAT1-inhibitor (KMH-233) was carried out as described above with HBSS buffer solution containing 100 µM of the studied compounds. The cells were pre-incubated with 100 µM LAT1-inhibitor for 10 min and the incubation mixture was removed before adding the studied compound and LAT1-inhibitor on the cells. The competitive uptake (30 min) with the inhibitor was then carried out as the normal uptake described above. The amounts of studied compounds were analyzed by the LC-MS method and calculated from the spiked standard curve and normalized with the protein concentrations.

LAT1 [4] = target: T1, LAT1; test: Inhibition type of [14C]-L-Leu uptake (Hanes-Woolf plots) in BV2 cells; format: cell-based; settings: for Vmax of [14C]-L-Leu uptake: 0.010–0.20 µM [14C]-L-Leu in the presence of the compound at its IC50, mean ± SD, n = 3–4; for Vmax of [14C]-L-Leu uptake / Inhibition Type: BV2; for Inhibition Type: of [14C]-L-Leu uptake, concluded from Km and Vmax
Experimental: as §3
To evaluate the inhibition type of studied compounds, the BV2 cells were incubated with 0.010–0.20 μM [^14C]-L-leucine together with the studied compound. The concentration of compounds was selected according to the compound-specific IC50 values. The experiment was then carried out as described for the [^14C]-L-leucine uptake above and the radioactivity was measured by liquid scintillation counting. Hanes-Woolf plots were created by setting the ratio of initial substrate concentration to the reaction velocity ([S]/v) against [^14C]-L-leucine concentration (µM). The linear regression was used to calculate Km value (negative value of x-intercept) and Vmax value (1/slope) for [^14C]-L-leucine.

LAT1 [5] = target: T1, LAT1; test: Cellular uptake of L-leucine after pre-incubation of BV2 cells with the compounds; format: cell-based; settings: 100 µM (L-glutamine 2 mM) pre-incubated 10 min or 3 h, L-leucine 1–400 µM, 5 min
Experimental: The ability of compounds 1–15 to affect the uptake of a known LAT1 substrate L-leucine was evaluated by pre-incubating the BV2 cells at 37 °C for 10 min or 3 h with uptake buffer pH 7.4 (250 μL) containing 100 µM of compounds 1–15 or thyroxin (T4), or known nuclear receptor inducible compounds, phenobarbital (constitutive androstane receptor, CAR), and dexamethasone (pregnane X receptor, PXR) as controls. […] After incubation, the reaction was stopped by adding 250 µL of ice-cold HBSS, and the cells were washed two times with ice-cold HBSS. The cells were then lysed with 500 μL of 0.1 M NaOH (60 min) and the lysate was mixed with 3.5 mL of Emulsifier safe cocktail (Ultima Gold, PerkinElmer, Waltham, MA, USA). The radioactivity in the cells was measured by liquid scintillation counting (MicroBeta^2 counter, PerkinElmer Waltham, MA, USA). The results were multiplied by the amount of un-labeled proportion of L-leucine in each sample.

[6] = Time-dependent cellular uptake of compounds into BV2 cells (LC-MS/MS); format: cell-based, mouse; settings: mouse, BV2 microglia cells, 100 µM compound, 1–60 min, mean ± SD, n = 3, read-out: T½ of cellular uptake
Experimental: (§4) For the time-dependent cellular uptake experiments, the BV2 cells on 24-well plates were incubated with studied compounds (100 μM) in a pre-warmed HBSS buffer (250 μL) at 37 °C for 1–60 min. Subsequently, the cells were washed three times with an ice-cold HBSS and lysed with 250 μL of NaOH (0.1 M) for 60 min. The lysates were diluted with acetonitrile (ACN) including the selected internal standard (diclofenac to all compounds) with a ratio of 1:3 and centrifuged at 10,000× g for 10 min. The samples were analyzed by the liquid chromatography-tandem mass spectrometric (LC-MS/MS) methods as described below. The concentrations of each compound in cell lysates were calculated from the standard curve that was prepared by spiking known amounts of compounds to ACN including the selected internal standard and then normalized with protein concentration. The protein concentrations on each plate were determined as a mean of three samples by Bio-Rad Protein Assay, based on the Bradford dye-binding method, using bovine serum albumin (BSA) as a standard protein and measuring the absorbance (595 nm) by multiplate reader (EnVision, Perkin Elmer, Inc., Waltham, MA, USA).
as §2

[7] = test system: immortalized mouse microglia (BV2); test: as above; format: cell-based; settings: for Max. cellular uptake: 100 µM compound, 1–60 min, mean ± SD, n = 3
Experimental: as §4, §2

LAT1 [8] = target: T1, LAT1; parameters: method as in earlier work; settings: BV2 cells; probe [14C]-L-Leu; mean ± SD; published earlier; ref [31] or [33]; read-out: IC50 of [14C]-L-Leu uptake; cited from earlier work
LAT1 [9] = test: Quantitative expression of LAT1 on the BV2 plasma membrane (LC-MS proteomics); format: cell-based, mouse; settings: BV2 cells incubated 24 h; normalized to Na+/K+ATPase; compared to untreated control
Experimental: The protein expression levels of LAT1, in the plasma membrane fractions of BV2 cells were quantified using multiplexed MRM analysis according to the protocol described by Uchida et al.. First, the crude membrane fractions were isolated from three distinct sets of cell culture plates using Membrane Protein Extraction Kit (BioVision Incorporated, Milpitas, CA, USA) according to the manufacturer’s instructions. The protein content for each fraction was measured by Bio-Rad Protein Assay, based on the Bradford dye-binding method (EnVision, Perkin Elmer, Inc., Waltham, MA, USA). A total amount of 50 µg protein from each fraction was solubilized/denatured in 7 M guanidine hydrochloride, 0.5 M Tris-HCl and 10 mM EDTA-Na. The proteins were then reduced by dithiothreitol (1:50, w/w) and S-carboxymethylated by iodoacetamide (1:20, w/w). The alkylated proteins were precipitated by methanol/chloroform/water (4:1:3) and centrifuged at 18,000× g for 5 min at 4 °C. The pellet was resuspended in 6 M urea and mixed for 10 min at room temperature before the dilution with 0.1 M Tris-HCl (pH 8.5) to a final concentration of 1.2 M urea, and dissolved completely by intermittent sonication (Branson 3510, Danbury, CT, USA). The dissolved proteins were first digested with LysC (1/100, w/w) and 0.05% ProteaseMax (Promega Biotech AB, Nacka, Sweden) for 3 h at room temperature. Then, the samples were spiked with 10 µL (30 fmol) of the labelled peptides for absolute quantification (JPT Peptide Technologies GmbH, Berlin, Germany) (Table S2). The samples were incubated with (1/100, w/w) TPCK-Trypsin (Promega Biotech AB, Nacka, Sweden) for 18 h at 37 °C. The tryptic digestion was then quenched by adding 40 µL of 5% formic acid. The samples were then centrifuged at 18,000× g for 5 min at 4 °C, and the supernatants were transferred to vials for analysis.
The digested peptides were analyzed using an ultra-performance liquid chromatography system coupled with a triple quadrupole mass spectrometer with a heated electrospray ionization source in the positive mode (UPLC 1290 and MSD 6495, Agilent Technologies, Santa Clara, CA, USA). A total amount of 20 µL of the digested peptides (10 µg) was separated using AdvanceBio Peptide Map 2.1 × 250 mm, 2.7 μm column (Agilent Technologies, Santa Clara, CA, USA) and LC eluents of 0.1% formic acid in water (A) and acetonitrile (B). The peptides were eluted following a constant flow rate of 0.3 mL/min and a gradient of 2–7% B for 2 min, followed by 7–30% B for 48 min, 30–45% B for 3 min, and 45–80% B for 2.5 min before re-equilibrating the column again for 4.5 min. LAT1 was quantified based on the ratio between the light and heavy standard peptides, as described previously (Table S2). Data was acquired using Agilent MassHunter Workstation Acquisition (Agilent Technologies, Data Acquisition for Triple Quadrupole, version B.03.01) and processed by using Skyline software (version 20.1). The results were normalized to a housekeeping protein Na+/K+ATPase and expressed as fmol/µg of the total amount of protein in the samples.

[10] = probe [3H]-L-Kynu, n = 3–4, read-out: IC50 of [3H]-L-Kynu uptake
[11] = probe [3H]-L-Met, n = 3–4, read-out: IC50 of [3H]-L-Met uptake
[12] = probe [3H]-L-Trp, n = 3–4, read-out: IC50 of [3H]-L-Trp uptake

T1 sequence (Q9Z127 whole entry): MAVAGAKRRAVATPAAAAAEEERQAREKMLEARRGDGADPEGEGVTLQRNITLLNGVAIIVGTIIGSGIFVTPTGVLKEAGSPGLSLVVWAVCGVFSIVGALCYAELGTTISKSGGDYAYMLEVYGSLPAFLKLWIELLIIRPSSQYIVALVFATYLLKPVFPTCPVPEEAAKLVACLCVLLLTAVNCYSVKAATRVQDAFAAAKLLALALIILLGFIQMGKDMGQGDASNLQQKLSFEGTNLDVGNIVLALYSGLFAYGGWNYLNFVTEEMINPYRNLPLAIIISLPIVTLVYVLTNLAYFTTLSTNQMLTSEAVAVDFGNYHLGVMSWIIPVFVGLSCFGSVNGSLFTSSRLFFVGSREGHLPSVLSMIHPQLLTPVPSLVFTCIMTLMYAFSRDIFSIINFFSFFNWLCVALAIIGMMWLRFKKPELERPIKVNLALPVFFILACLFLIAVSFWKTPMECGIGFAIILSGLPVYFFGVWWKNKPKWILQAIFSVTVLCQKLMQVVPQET
T1 sequence (P10852 whole entry partner): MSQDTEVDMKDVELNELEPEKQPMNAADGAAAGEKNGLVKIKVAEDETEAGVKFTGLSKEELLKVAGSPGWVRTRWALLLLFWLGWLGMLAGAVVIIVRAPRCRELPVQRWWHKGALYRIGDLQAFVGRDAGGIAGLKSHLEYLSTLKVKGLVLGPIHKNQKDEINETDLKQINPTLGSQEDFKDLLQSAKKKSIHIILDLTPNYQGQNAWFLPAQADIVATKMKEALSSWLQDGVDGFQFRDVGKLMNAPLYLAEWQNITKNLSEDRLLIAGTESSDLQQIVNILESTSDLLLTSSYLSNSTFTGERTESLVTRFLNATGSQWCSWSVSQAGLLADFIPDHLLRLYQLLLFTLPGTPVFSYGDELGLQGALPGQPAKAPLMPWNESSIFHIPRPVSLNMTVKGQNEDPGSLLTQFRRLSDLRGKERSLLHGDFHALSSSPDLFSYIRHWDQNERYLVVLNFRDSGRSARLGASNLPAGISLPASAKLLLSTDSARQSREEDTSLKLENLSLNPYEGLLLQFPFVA

| Compound | Km (LAT1 [1]) | Transport Type 1 (LAT1) Vmax (LAT1 [1]) | Km (Transport Type 2) | Transport Type 2 Vmax (Transport Type 2) | Inhibition of LAT1-probe substrate uptake / LAT1 affinity (LAT1 [2]; over all probe substrates) | IC50 (LAT1 [2]; [10]) | IC50 (LAT1 [2]; [11]) | IC50 (LAT1 [2]; [12]) | IC50 (LAT1 [2]; probe [14C]-L-Leu, n = 3–4, read-out: IC50 of [14C]-L-Leu uptake) | Cellular uptake in the presence of LAT1-inhibitor (LAT1 [3]) | Vmax of [14C]-L-Leu uptake (LAT1 [4]) | Inhibition Type (LAT1 [4]) | Effect on cellular uptake of L-Leu after pre-incubation (LAT1 [5]) | half-life at 100 μM [6] | Max. cellular uptake [7] | IC50 (LAT1 [4]; Table 2, compound concentration used in the inhibition type study, corresponding to IC50 of [14C]-L-Leu uptake) | IC50 (LAT1 [8]) | LAT1-substrate or LAT1-binder ([7]; concluded from time-dependent uptake, 100 µM) | LAT1 expression on the plasma membrane (LAT1 [9]) |
| --- | --- | --- | --- | --- | --- | --- | --- | --- | --- | --- | --- | --- | --- | --- | --- | --- | --- | --- | --- |
| COc1cc(/C=C/C(=O)Nc2cccc(C[C@H](N)C(=O)O)c2)ccc1O [Compound 6] | 3.6 ± 0.4 µM | 0.11 ± 0.01 pmol/mg/min | 78 ± 16 µM | 0.26 ± 0.02 pmol/mg/min | not able to inhibit the LAT1-probe substrate uptake very effectively | 54.3 ± 1.3 µM | > 100 µM | > 100 µM | > 100 µM | inhibited significantly | 3.224 ± 0.077 nmol/min/mg | Non-competitive | induced the uptake of L-Leu | 9.38 ± 2.33 min | 1.11 ± 0.09 nmol/mg of protein | – | – | – | – |
| COc1ccc2cc([C@H](C)C(=O)Nc3cccc(C[C@H](N)C(=O)O)c3)ccc2c1 [Compound 11] | 2.6 ± 1.2 µM | 53 ± 8 pmol/mg/min | – | – | – | 1.8 ± 1.2 µM | 10.4 ± 1.5 µM | 14 ± 1.2 µM | – | only reductive trends were seen | 1.515 ± 0.125 nmol/min/mg | Non-competitive | – | – | 4.48 ± 0.37 nmol/mg of protein | 10 µM | 9 ± 1.1 µM | LAT1-binders rather than substrates | – |
| N[C@@H](Cc1cc(I)c(Oc2cc(I)c(O)c(I)c2)c(I)c1)C(=O)O [Compound T4, thyroxin, reference compound] | – | – | – | – | – | – | – | – | – | – | – | – | induced the uptake of L-Leu | – | – | – | – | – | downregulated LAT1 expression |
